ChEMBL document CHEMBL1255426, “Single-dose pharmacokinetics of famciclovir in infants and population pharmacokinetic analysis in infants and children” (Antimicrob Agents Chemother, 2010)

Assays:
Homo sapiens [1] = experiment: AUC (0 to 6 hrs) in 2 to <6 months old infant assessed as penciclovir at 6.6 +/- 1.4 mg/kg, po single dose; type: ADME, organism-based, Plasma; set-up: time < 6 hr, route oral; settings: in vivo
Homo sapiens [2] = experiment: Tmax in 1 to <3 months old infant assessed as penciclovir at 6.6 +/- 1.4 mg/kg, po single dose; type: ADME, organism-based; set-up: route oral; settings: in vivo
Homo sapiens [3] = experiment: Cmax in 6 to 12 months old infant assessed as penciclovir at 6.6 +/- 1.4 mg/kg, po single dose; type: ADME, organism-based; set-up: route oral; settings: in vivo
Homo sapiens [4] = experiment: Toxicity in 1 to 12 months old infant assessed as severe adverse events at 13.5 mg/kg, po single dose within 8 days; type: organism-based; set-up: dose 13.5 mg/kg, route oral; settings: in vivo, 192 h
Homo sapiens [5] = experiment: Tmax in 6 to 12 months old infant assessed as penciclovir at 6.6 +/- 1.4 mg/kg, po single dose; type: ADME, organism-based; set-up: route oral; settings: in vivo
Homo sapiens [6] = experiment: Toxicity in 1 to 12 months old infant assessed as mild adverse events at 13.5 mg/kg, po single dose within 8 days; type: organism-based; set-up: dose 13.5 mg/kg, route oral; settings: in vivo, 192 h
Homo sapiens [7] = experiment: AUC (0 to 6 hrs) in 1 to <3 months old infant assessed as penciclovir at 6.6 +/- 1.4 mg/kg, po single dose; type: ADME, organism-based, Plasma; set-up: time < 6 hr, route oral; settings: in vivo
Homo sapiens [8] = experiment: Tmax in 2 to <6 months old infant assessed as penciclovir at 6.6 +/- 1.4 mg/kg, po single dose; type: ADME, organism-based; set-up: route oral; settings: in vivo
Homo sapiens [9] = experiment: Toxicity in 1 to 12 months old infant assessed as adverse events at 13.5 mg/kg, po single dose within 8 days; type: organism-based; set-up: dose 13.5 mg/kg, route oral; settings: in vivo, 192 h
Homo sapiens [10] = experiment: Toxicity in 1 to 12 months old infant assessed as moderate adverse events at 13.5 mg/kg, po single dose within 8 days; type: organism-based; set-up: dose 13.5 mg/kg, route oral; settings: in vivo, 192 h
Homo sapiens [11] = experiment: Cmax in 1 to <3 months old infant assessed as penciclovir at 6.6 +/- 1.4 mg/kg, po single dose; type: ADME, organism-based; set-up: route oral; settings: in vivo
Homo sapiens [12] = experiment: AUC (0 to 6 hrs) in 6 to 12 months old infant assessed as penciclovir at 6.6 +/- 1.4 mg/kg, po single dose; type: ADME, organism-based, Plasma; set-up: time < 6 hr, route oral; settings: in vivo
Homo sapiens [13] = experiment: Cmax in 2 to <6 months old infant assessed as penciclovir at 6.6 +/- 1.4 mg/kg, po single dose; type: ADME, organism-based; set-up: route oral; settings: in vivo

AUC (Homo sapiens [1]): 3160 ng·h/mL
Tmax (Homo sapiens [2]): 1 h
Cmax (Homo sapiens [3]): 3240 ng/mL
Tmax (Homo sapiens [5]): 1.02 h
AUC (Homo sapiens [7]): 2110 ng·h/mL
Tmax (Homo sapiens [8]): 4 h
Cmax (Homo sapiens [11]): 690 ng/mL
AUC (Homo sapiens [12]): 8770 ng·h/mL
Cmax (Homo sapiens [13]): 740 ng/mL
SMILES: CC(=O)OCC(CCn1cnc2cnc(N)nc21)COC(C)=O [FAMCICLOVIR]
Activity (Homo sapiens [4]): 5.6%
Activity (Homo sapiens [6]): 16.7%
Activity (Homo sapiens [9]): 44.4%
Activity (Homo sapiens [10]): 22.2%
